Molecules are shown by their SMILES.

This note sets out measurements from EP3282019A1, “[…] TREATMENT OF CANCER, IN […] L[…]” (priority 2016, dated 2018).

For assay [1], the system named is CLL cells. As to the kind of experiment: FACS detection of apoptosis (AnnexinV / propidium iodide) in CLL cells, PMA activation model. Type of assay: cell-based, human. The protocol:
Cell lines and culture: CLL cells were cultured in RPMI 1640 medium containing 10% fetal calf serum, 100U/ml penicillin and […] streptomycin at 37 °C, 7.5% CO2 in humidified atmosphere. The ex vivo CLL microenvironment model based on using primary human bone marrow stromal cells in co-culture with CLL cells was applied as previously described and was used for analysing the effect of gliotoxin, RO4929097, and blocking antibodies on CLL cells in a milieu resembling the situation in vivo (Shehata et al., 2004). The PMA activation model was used to analyse the function of PKC stimulation on the regulation of NOTCH2/NOTCH3 signalling in CLL cells.
Flow cytometry (FACS) and detection of cell viability: Antibodies (CD5, CD19, CD20, CD23, CD49d, CD37, CD52, and 7-Aminoactinomycin D (7-AAD) were purchased from Becton Dickinson (San Jose, CA). Species- and isotype-matched irrelevant antibodies are used as controls. Flow cytometry was performed on a FACScan® using CellQuest Pro software version 5.2.1 (Becton Dickinson, San Jose, CA). Ultra high speed cell sorting was used to isolate CD5+/CD19+ CLL cells from normal B-cells (CD19+/CD5-) and T-cells (CD3+). AnnexinV, propidium iodide, and 7-AAD staining was performed to estimate the percentages of cells undergoing apoptosis. The overall effect on cell viability was calculated as the sum of early apoptotic (AnnexinV single positive; Ax+/PI-) and late apoptotic/necrotic (AnnexinV/propidium iodide double positive; Ax+/PI+) cells using a kit from Bender Med. Systems Inc. (Vienna, AT). Cell viability was evaluated by a nonisotopic MTT (3-(4,5-dimethylthiazolyl-2)-2,5-diphenyltetrazolium bromide) assay (Ez4U) in 96-well culture plates as described by the manufacturer (Biomedica, AT).

For assay [2], the system named is NOTCH and apoptosis related genes. As to the kind of experiment: semiquantitative RT-PCR of NOTCH and apoptosis related genes in CLL cells. In kind it is cell-based, human. The following applies: for NOTCH3 expression / NR4A1 expression: Fig 3A, right panel. The text has this: PCR, RT-PCR, and Western blot analysis: Total RNA was extracted using the Trizol isolation system (Invitrogen/Life Technologies, Paisley, UK). Genomic DNA (gDNA) was extracted using the Wizard Genomic DNA extraction kit from Promega. M-MLV reverse transcriptase and GoTaq PCR kits (Promega, WI, USA) were used for semiquantitative reverse transcriptase polymerase chain reactions (RT-PCR).
PCR and RT-PCR techniques (long range PCR using genomic DNA, semiquantitative RT-PCR), and western blotting (Modular Mini-Protean II system from Bio Rad) were used routinely according to standard protocols.

Assay [3] has as its system NOTCH2 (N2^IC / Mastermind / CSL) transcription factor complex. As to the kind of experiment: EMSA of DNA-bound NOTCH2 complexes in nuclear extracts of CLL cells. Type of assay: cell-based, human. The protocol:
Preparation of nuclear extracts and EMSA: 3x10^7 cells were lysed in 1ml hypotonic buffer (10mM HEPES, pH 7.9; 1.5mM MgCl2; 10mM KCL) containing 0.15% NP-40 at 4°C for 10 min. The nuclear proteins were extracted from the nuclear fraction by resuspending the nuclei in 100µl extraction buffer (300mM KCl; 1.5mM MgCl2; 20mM HEPES pH 7.9; 0.2mM EDTA; 25% Glycerin) at 4°C for 20 min with constant agitation. The CSL site spanning EMSA probe was derived from the CD23a promoter (5'-[…]-3' (SEQ ID NO: 40) annealed with the reverse complementary strand). The N1^IC (bTAN 20) and N2^IC (C651.6DbHN) antibodies was obtained from the Developmental Studies Hybridoma Bank (University of Iowa, Department of Biological Science, Iowa City, IA). EMSA was performed essentially as described (Hubmann et al., 2010)
For orientation: In EMSA bound probe runs differently from free probe, usually more slowly.

Assay [4] concerns CLL cells. Nature of the assay: ex vivo CLL microenvironment model (co-culture with primary human bone marrow stromal cells).
Where [5] appears, read: RO4929097 0.5µM, PMA-activated CLL cells expressing a GSI resistant form of nuclear NOTCH2.
[6] abbreviates: chronic stimulation with PMA, after 3 days, CLL cells.

In the case of `CC(C)(C(=O)NCC(F)(F)C(F)(F)F)C(=O)N[C@@H]1C(=O)Nc2ccccc2-c2ccccc21` [RO4929097], the gliotoxin mediated apoptosis entry in assay [1] (RO4929097 0.5µM with gliotoxin 0.2µM, PMA-activated CLL cells expressing a GSI resistant form of nuclear NOTCH2, Fig 3B) was “counteracts”. Besides, in assay [1] (RO4929097 0.5µM, PMA-activated CLL cells expressing a GSI resistant form of nuclear NOTCH2, Fig 3B), the spontaneous apoptosis entry is on record as “counteracts”. In assay [2] (setting [5]), the NOTCH3 expression result is recorded as “inhibits” and the NR4A1 expression entry was “inhibits”.

Consider `C[C@H](NC(=O)Cc1cc(F)cc(F)c1)C(=O)N[C@H](C(=O)OC(C)(C)C)c1ccccc1` [DAPT], for which the “nuclear NOTCH2 activity” value in assay [3] (5µM DAPT, majority of CLL cases, Fig. 1A and B) is recorded as “no effect”. In assay [3] (majority of CLL cases, Fig. 2B), the “sensitivity of DNA-bound NOTCH2 complexes to GSI” value is “less sensitive/resistant”.

For the molecule `CCCCCCCCCCCCCC(=O)O[C@@H]1[C@@H](C)[C@@]2(O)[C@@H](C=C(CO)C[C@]3(O)C(=O)C(C)=C[C@@H]23)[C@@H]2C(C)(C)[C@]12OC(C)=O` [PMA], in assay [2] (PMA-activated CLL cells, Fig 2C, lane 4), the “expression of all NOTCH ligands” value is given as “downregulation”. Also, in assay [2] (setting [6]), the NOTCH3 expression entry was “upregulation” and the NR4A1 expression result is “upregulation”.

Take `CN1C(=O)[C@]23CC4=CC=C[C@H](O)[C@H]4N2C(=O)[C@@]1(CO)SS3` [gliotoxin]: in assay [3], the “NOTCH2 at the transcription factor level” value is recorded as “inhibits NOTCH2 at the transcription factor level”, the NOTCH2 transactivation entry is listed as “potent NOTCH2 transactivation inhibitor” and the “assembly of the ternary NOTCH2 (N2^IC / Mastermind / CSL) transcription factor complex on DNA” value is given as “interferes with the assembly”. In assay [1], the “apoptosis in CLL cells” value is recorded as “efficiently induced apoptosis” and the “protective effect of PMA on CLL cells” value was “reversed the protective effect of PMA”. Moreover, in assay [2], the NOTCH2 signalling result is on record as “rapidly inhibited”; the “NOTCH3 mRNA expression” value is given as “upregulated”; the “NR4A1 mRNA expression” value is “upregulated”; the “co-expression of NOTCH3 and its ligand JAG2 (unstimulated cells) or DLL1 (PMA activated cells)” value is listed as “induced co-expression”. Moreover, in assay [4], the “anti-apoptotic effect of bone marrow stromal cells” value is listed as “could also overcome the anti-apoptotic effect”.
